Assays:
[1] = test system: NHK-young (keratinocytes from young individuals); assay: Cell adhesion of NHK-young to immobilized peptide; type: cell-based, human
Protocol: Dose-dependent cell adhesion of NHK-10 years versus NHK-71 years (A) and NHK-11 years versus NHK-60 years (B) peptides TALRIRATYHEY. The peptides were immobilized in 96-well plates at the concentrations given on the abscissa. 3.5×10^4 (A) cells and 4.3×10^4 (B) cells were deposited in each well and plates were incubated at 37° C. for 1 hour. After washing, attached cells were fixed and cell adhesion was measured as described in the methodology section (C). Cells were observed by phase contrast microscopy then photographed. Bar=50 μm.
In order to obtain keratinocytes originating from biopsies taken from young and old individuals and taken from the same anatomical site, the inventors conducted a study of facial skin biopsies. The area of the face situated behind the ears was chosen in order to study only intrinsic aging and to overcome the effects of photo-induced aging. Surgery waste from cosmetic surgery (face lifts) in older individuals and surgery waste from detached ears in young children was collected. It is essential to use biopsies collected on the same day as surgery was performed in order to quickly place the epidermal keratinocytes in culture. Cells from biopsies on elderly individuals (60, 63 and 71 years) and young individuals (8, 10 and 11 years) were used for this study. The keratinocytes were obtained by means of the technique described by Boyce and Ham, 1985. After careful washing in PBS buffer containing antibiotics, fatty tissue located under the dermis was removed from the skin fragments using sterile instruments. Skin was then cut into 3 mm^2 sections which were placed in a sterile solution of 0.25% trypsin in PBS for 16 hours at 4° C. Dermis/epidermis separation was performed using tweezers in a Petri dish containing culture medium in order to stop the enzyme action of trypsin. Epidermal fragments were then aspirated and blown out several times using a pipette in order to detach free basal cells. […]

[2] = test system: NHKs; assay: Cell adhesion of NHKs to peptides co-immobilized with laminin 5; type: cell-based, human
Protocol: Peptides 1, 2 and 3 (variable quantities indicated) and laminin 5 (fixed quantity 0.2 mg) were co-immobilized in 96-well plates. 5×104 NHKs were deposited in each well and plates were incubated at 37° C. for 1 hour. After washing, attached cells were fixed and cell adhesion was measured as described in the methodology section. Cell adhesion in the presence of the peptide is given as a percentage of cell adhesion obtained with laminin 5 alone. Cells were observed by phase contrast microscopy then photographed. Bar=50 μm.
A decreasing range of LN5 (prepared in the laboratory) and COL4 (BD Biosciences, Le Pont de Claix, France) quantities was made up by successive dilution in PBS. These solutions were immediately distributed into a 96-well culture plate (Costar) at a rate of 100 μl per well. The experiment was conducted in exactly the same way as the experiment described in example 2. The results are given in the form of a graph with the absorbance values representing adhesion on the ordinate and the various substrate concentrations on the abscissa. Attached cells were photographed by phase contrast microscopy.
In order to analyse the effect of the peptide on cell adhesion to DEJ proteins, peptide TALRIRATYGEY (SEQ ID NO.1) (peptide 1) was co-immobilized with LN5 (FIG. 14) and COL4 (FIG. 15). The fixed quantity of matrix protein (LN5 and COL4) and the variable quantity of peptide are given on the graph (FIGS. 14 and 15). Peptides 2 and 3 (described in example 1) were used as controls for the experiment. The adhesion tests were carried out with NHK under the same conditions as the experiment given in FIG. 13 (50,000 cells per well). A peptide-free control representing 100% adhesion (LN5 only and COL4 only) was used to allow analysis of the effect of adhesion relating to the presence of the peptide. The results are given as a percentage of this control.

In the case of “TALRIRATYGEY (Human laminin 5) [Peptide 1]”, the “deposited peptide quantity triggering adhesion” value ([1]; NHK-young) is reported as 0.08 µg, the “cell adhesion to immobilized peptide” value ([1]; NHK-young, 0 to 5 micrograms per well, 1 hour 37° C.) is reported as “triggered dose-dependent cell adhesion” and the “number of NHK-young cells attached compared to NHK-old (fold)” value ([1]; both experiments (10 vs 71 years, 11 vs 60 years), identical cell numbers) is reported as ~2. The “effect on adhesion of NHKs to LN5 (co-immobilized)” value ([2]; laminin 5 fixed quantity 0.2 mg, 50,000 cells per well, percentage of LN5 alone) was “gradual and significant increase” and the “change of adhesion to LN5, on average” value ([2]; peptide quantity of 0.21 to 0.87 μg/well, LN5 alone = 100%) was “doubled”.
